From patent US20250352500A1, “USE OF PHENOLIC ACIDS DERIVATIVES IN TREATING ISCHEMIC STROKE” (LANZHOU UNIVERSITY, priority 2022, published 2025)

Experiments:
Type in all cases: in vivo, male C57/BL mice
[1] = system: iba1; test: iba1 protein Western blot in brain tissue; details: for iba1 protein expression reduced compared with MCAO group: three days of administration, compound 2 100 mg/kg, compound 1 50 mg/kg
Procedure: (§1) Grouping and administration method: Male C57/BL mice weighing 23±1 g were randomly divided into sham operation group (SHAM), model group (MCAO), compound 2 group (100 mg/kg), and compound 1 group (50 mg/kg), with 10 mice in each group. Mice in the SHAM group underwent vascular isolation, but no […] was administered, and no treatment was given before or after surgery. The model group mice were constructed with MCAO models and were not treated before and after surgery. The treatment group was treated with compound 2 or compound 1 on the basis of the model group. Mice with a neurological score of 0 after reperfusion and those that died before 72 hours post-surgery were excluded. The administration time for animal behavior tests was seven times at 0 h, 1 day, 2 days, 3 days, 4 days, 5 days, and 6 days after reperfusion, while the administration time for other experiments was three times at 0 h, 1 day, and 2 days after reperfusion. The drug was administered through the tail vein, and the sham operation group and model group were given equal amounts of saline.
The expression level of the specific protein iba1 in microglia in brain tissues was detected by Western blot. (A) The representative WB images of iba1 protein expression in brain tissues of the sham operation group (SHAM), model group (MCAO), compound 2 group, and compound 1 group are shown in FIG. 8A, and the quantitative statistical results are shown in FIG. 8B. […] Compared with the MCAO group, the expression of iba1 protein decreased three days after administration of compound 1. Compared with the compound 1 group, the expression level of iba1 protein in the compound 2 group decreased. In this experiment, β-actin was used as the internal reference protein. n=3, data are presented as mean±SEM, analyzed with one-way ANOVA, and subjected to Tukey's HSD test. *P<0.05, **P<0.01, ***P<0.001. ^#P<0.05, ^##P<0.01, ^###P<0.001. * indicates comparison with the SHAM group, ^# indicates a comparison with the Compound 2 group.

[2] = system: TNF-α; test: TNF-α immunofluorescence in brain tissue; details: 72 h ischemia-reperfusion; compound 2 100 mg/kg, compound 1 50 mg/kg; MCAO group 361±48; mean±SEM, n=3
Procedure: as §1, with “The administration time for animal behavior tests was seven times at 0 h, 1 day, 2 days, 3 days, 4 days, 5 days, and 6 days after reperfusion, while the administration time for other experiments was three times at 0 h, 1 day, and 2 days after reperfusion. The drug was administered through the tail vein, and the sham operation group and model group were given equal amounts of saline.” left out
(§2) To investigate the effect of compounds on the expression of inflammatory factors after ischemia-reperfusion, this study used immunofluorescence experiments to observe the expression of TNF-α, IL-1β, IL-6, iNOS, and COX2 proteins in brain tissue. […] The concentrations of TNF-α, IL-1β, and IL-6 in brain homogenate were detected by enzyme-linked immunosorbent assay (ELISA), and the expression level of TNF-α protein in brain tissue was detected by Western blot.
After 72 hours of ischemia-reperfusion, the expression changes of inflammatory factors such as TNF-α, IL-1β, IL-6, iNOS, and COX2 in brain regions were analyzed by immunofluorescence staining. […]

[3] = system: HIF-1α; test: HIF-1α protein Western blot in brain tissue; details: 72 h; for HIF-1α protein expression reduced compared with MCAO model group: three days of administration, compound 2 100 mg/kg, compound 1 50 mg/kg
Procedure: as §1
HIF-1α is a sensitive regulator of oxygen homeostasis, rapidly inducing its expression after hypoxia-ischemia. It plays a wide range of roles in the pathophysiology of stroke, including neuronal survival, neuroinflammation, angiogenesis, glucose metabolism, and blood-brain barrier regulation. It can not only produce specific sensations in the case of hypoxia, but also facilitate the maintenance of oxygen homeostasis in the body. […]
After 72 hours of ischemia-reperfusion, the expression level of HIF-1α protein in brain tissue was detected by Western blot. […] In this experiment, β-actin was used as the internal reference protein. n=3, data are mean±SEM, analyzed using one-way ANOVA and Tukey's HSD test. *P<0.05, **P<0.01, ***P<0.001. ^#P<0.05, ^##P<0.01, ^###P<0.001. * indicates a comparison with the SHAM group, ^# indicates a comparison with the compound 2 group.

[4] = system: MCAO model mice; test: Cerebral infarction volume by TTC staining in MCAO model mice; details: for Cerebral infarction volume reduced compared with the model group: mean±SEM
Procedure: Male C57/BL mice weighing 23±1 g were randomly divided into sham operation group (SHAM), model group (MCAO) and drug administration groups (50 mg/kg, 100 mg/kg, 200 mg/kg), with 6 mice in each group. Mice in the SHAM group underwent vascular isolation, but no […] was administered, and no treatment was given before or after surgery. The model group mice were constructed with ischemic MCAO models, and no treatment was given before and after surgery. The drug administration group was treated with compound 2 on the basis of the model group. Mice with a neurological score of 0 after reperfusion and those that died before 72 hours post-surgery were excluded. The drugs were administered through the tail vein at 0, 1, and 2 days after reperfusion. The SHAM group and MCAO group were given equal volumes of saline.
The cerebral infarction volumes of the sham-hand group (SHAM), model group (MCAO), compound 2 (50 mg/kg) group, compound 2 (100 mg/kg) group, and compound 2 (200 mg/kg) group in Example 2 were detected by TTC staining. […] The cerebral infarction volumes of mice in the different concentration groups were different.

[5] = system: MCAO model mice; test: Survival curve after ischemia-reperfusion; details: 100 mg/kg tail vein
Procedure: as §1
At the same time, the weight change and survival rate of mice after ischemia-reperfusion were analyzed.

[6] = system: IL-1β; test: RT-qPCR of IL-1β mRNA in brain tissue; details: 72 h, three days of administration, compound 2 100 mg/kg, P<0.01
Procedure: as §1, with “The administration time for animal behavior tests was seven times at 0 h, 1 day, 2 days, 3 days, 4 days, 5 days, and 6 days after reperfusion, while the administration time for other experiments was three times at 0 h, 1 day, and 2 days after reperfusion. The drug was administered through the tail vein, and the sham operation group and model group were given equal amounts of saline.” left out
as §2
(§3) After 72 hours of ischemia-reperfusion, the mRNA expression levels of TNF-α, IL-1β, IL-6, iNOS, and COX2 in brain tissue were detected and analyzed by RT-qPCR. […]

[7] = system: IL-6; test: RT-qPCR of IL-6 mRNA in brain tissue; details: 72 h, three days of administration, compound 2 100 mg/kg, P<0.01
Procedure: as §1, with “The administration time for animal behavior tests was seven times at 0 h, 1 day, 2 days, 3 days, 4 days, 5 days, and 6 days after reperfusion, while the administration time for other experiments was three times at 0 h, 1 day, and 2 days after reperfusion. The drug was administered through the tail vein, and the sham operation group and model group were given equal amounts of saline.” left out
as §2, §3

[8] = compound 2 100 mg/kg vs compound 1 50 mg/kg

Row | Structure (SMILES) | iba1 protein expression reduced compared with MCAO group [1] | Number of TNF-α-positive cells [2] | HIF-1α protein expression reduced compared with MCAO model group [3] | Cerebral infarction volume reduced compared with the model group ([4]; 100 mg/kg via tail vein at 0, 1, 2 days after reperfusion, P<0.001) | Cerebral infarction volume smaller at 100 mg/kg compared with 50 mg/kg ([4]; 100 mg/kg vs 50 mg/kg of compound 2, mean±SEM, P<0.05) | Cerebral infarction volume reduced compared with the model group ([4]; 200 mg/kg via tail vein at 0, 1, 2 days after reperfusion, P<0.05) | Mortality rate (survival curve) compared with MCAO group [5] | iba1 protein expression level compared with the compound 1 group [1, 8] | IL-1β mRNA expression compared with MCAO group [6] | Decrease of IL-6 mRNA expression compared with MCAO group [7] | HIF-1α protein expression level compared with the compound 1 group [3, 8]
1 | O=C(O)c1cc(O)ccc1O [compound 1] | decreased | 244±36 /mm^2 | 46±10% |  |  |  |  |  |  |  | 
2 | O=C(O)c1cc(OP(=O)(O)O)ccc1OP(=O)(O)O [compound 2] | 50±12% | 140±35 /mm^2 | 53±10% | 27.17±5.18% | 26.22±4.68% | 16.19±3.56% | significantly improved the mortality rate | decreased | significantly reduced | 51±8% | significantly reduced
